From patent US20090304606A1, “Method for removing debris from tooth and bone surface using irrigation solution” (priority 2006, published 2009)

Test: Effect of surfactants on stability of citric acid solutions, accelerated aging on a hot plate
Format: physicochemical
Procedure: In the following example, the stability of solutions containing an acid component and different surfactants (surfactants) was evaluated. Solutions of 4.4% citric acid and 0.5% surfactant were prepared. The solutions were placed in clear glass bottles, and the bottles were placed on a hot plate to approximate accelerated aging conditions. The temperature of the liquids in the bottle was about 60° C., although some variations occurred depending upon the position of the bottle.

Observations (stability of solution) | Sequence
Yellow precipitate formed at bottom | POLOXAMER 407
Slightly cloudy after 64 days. | POLOXAMER 237
